Tested on: MV-4-11 cells
Test: Gene expression microarray analysis (Affymetrix PrimeView) and GSEA
Assay type: cell-based, human
Design: RFU PODN (11730768_x_at) / Fold change /veh PODN (11730768_x_at) / RFU LINC00158 (11744669_a_at) / Fold change /veh LINC00158 (11744669_a_at) / RFU DUSP10 (11751237_a_at) / Fold change /veh DUSP10 (11751237_a_at) / RFU ID3 (11757404_x_at) / Fold change /veh ID3 (11757404_x_at) / RFU PLEKHG5 (11737974_s_at) / Fold change /veh PLEKHG5 (11737974_s_at) / RFU LRRC4B (11730491_at) / Fold change /veh LRRC4B (11730491_at) / RFU GIMAP4 (11747438_a_at) / Fold change /veh GIMAP4 (11747438_a_at) / RFU KRT8 (11758183_x_at) / Fold change /veh KRT8 (11758183_x_at) / RFU CNN1 (11734310_a_at) / Fold change /veh CNN1 (11734310_a_at) / RFU VPS37D (11726825_at) / Fold change /veh VPS37D (11726825_at) / RFU C10orf10 (11716522_x_at) / Fold change /veh C10orf10 (11716522_x_at) / RFU KIR2DL2 /// KIR2DL4 /// KIR2DL5A /// KIR2DL5B /// KIR2DS1 /// KIR2DS2 /// KIR2DS3 /// KIR2DS4 /// KIR3DL3 /// KIR3DL3 /// KIR3DS1 (11738374_at) / Fold change /veh KIR2DL2 /// KIR2DL4 /// KIR2DL5A /// KIR2DL5B /// KIR2DS1 /// KIR2DS2 /// KIR2DS3 /// KIR2DS4 /// KIR3DL3 /// KIR3DL3 /// KIR3DS1 (11738374_at) / RFU C1QL1 (11718748_at) / Fold change /veh C1QL1 (11718748_at) / RFU TMPRSS4 (11747572_a_at) / Fold change /veh TMPRSS4 (11747572_a_at) / RFU HAMP (11756126_x_at) / Fold change /veh HAMP (11756126_x_at) / RFU RNFT2 (11725882_a_at) / Fold change /veh RNFT2 (11725882_a_at) / RFU NR4A2 (11747474_a_at) / Fold change /veh NR4A2 (11747474_a_at) / RFU ABCC12 (11746883_a_at) / Fold change /veh ABCC12 (11746883_a_at) / RFU TMEM136 (11760407_x_at) / Fold change /veh TMEM136 (11760407_x_at) / RFU CLDN22 /// WWC2 (11732394_at) / Fold change /veh CLDN22 /// WWC2 (11732394_at) / RFU HLA-DPB1 (11760878_x_at) / Fold change /veh HLA-DPB1 (11760878_x_at) / RFU SPINT1 (11716480_a_at) / Fold change /veh SPINT1 (11716480_a_at) / RFU GAP43 (11754022_s_at) / Fold change /veh GAP43 (11754022_s_at) / RFU A4GNT (11735810_at) / Fold change /veh A4GNT (11735810_at) / RFU PRB3 (11715151_x_at) / Fold change /veh PRB3 (11715151_x_at) / RFU TUBB4B (11761932_at) / Fold change /veh TUBB4B (11761932_at) / RFU CAPN14 (11732068_a_at) / Fold change /veh CAPN14 (11732068_a_at) / RFU TMCC2 (11721928_a_at) / Fold change /veh TMCC2 (11721928_a_at) / RFU IRGQ (11745062_a_at) / Fold change /veh IRGQ (11745062_a_at) / RFU FAM174B (11720279_a_at) / Fold change /veh FAM174B (11720279_a_at) / RFU TMPRSS4 (11748680_a_at) / Fold change /veh TMPRSS4 (11748680_a_at) / RFU FAM212B (11763350_a_at) / Fold change /veh FAM212B (11763350_a_at) / RFU PLEKHG5 (11743358_a_at) / Fold change /veh PLEKHG5 (11743358_a_at) / RFU ZSCAN30 (11745921_a_at) / Fold change /veh ZSCAN30 (11745921_a_at) / RFU CMKLR1 (11741424_a_at) / Fold change /veh CMKLR1 (11741424_a_at) / RFU LOC101060620 /// MAPK8IP1 (11723275_at) / Fold change /veh LOC101060620 /// MAPK8IP1 (11723275_at) / RFU SPTSSB (11747773_x_at) / Fold change /veh SPTSSB (11747773_x_at) / RFU PRSS12 (11739890_at) / Fold change /veh PRSS12 (11739890_at) / RFU BIN1 (11741810_x_at) / Fold change /veh BIN1 (11741810_x_at) / RFU WNT11 (11732464_a_at) / Fold change /veh WNT11 (11732464_a_at) / RFU C10orf10 (11716521_a_at) / Fold change /veh C10orf10 (11716521_a_at) / RFU C5orf56 (11738089_at) / Fold change /veh C5orf56 (11738089_at) / RFU CYB561 (11721691_x_at) / Fold change /veh CYB561 (11721691_x_at) / RFU ANKRD19P (11752326_a_at) / Fold change /veh ANKRD19P (11752326_a_at) / RFU OR2T12 /// OR2T33 /// OR2T8 (11738714_s_at) / Fold change /veh OR2T12 /// OR2T33 /// OR2T8 (11738714_s_at) / RFU VCAN (11748164_a_at) / Fold change /veh VCAN (11748164_a_at) / RFU JSRP1 (11732532_at) / Fold change /veh JSRP1 (11732532_at) / RFU KRTAP10-11 (11738290_x_at) / Fold change /veh KRTAP10-11 (11738290_x_at) / RFU MYO3A (11730013_a_at) / Fold change /veh MYO3A (11730013_a_at) / RFU EBF3 (11725865_a_at) / Fold change /veh EBF3 (11725865_a_at) / RFU CAMK2N1 (11719241_x_at) / Fold change /veh CAMK2N1 (11719241_x_at) / RFU C5orf56 (11738088_a_at) / Fold change /veh C5orf56 (11738088_a_at) / RFU OLFML3 (11715873_a_at) / Fold change /veh OLFML3 (11715873_a_at) / RFU LOC100653217 /// NTM (11731650_a_at) / Fold change /veh LOC100653217 /// NTM (11731650_a_at) / RFU MAPK11 (11762145_a_at) / Fold change /veh MAPK11 (11762145_a_at) / RFU FIZ1 (11724087_x_at) / Fold change /veh FIZ1 (11724087_x_at) / RFU OASL (11726364_x_at) / Fold change /veh OASL (11726364_x_at) / RFU SOX15 (11748057_x_at) / Fold change /veh SOX15 (11748057_x_at) / RFU CD79A (11719716_a_at) / Fold change /veh CD79A (11719716_a_at) / RFU HIST1H1D (11736915_at) / Fold change /veh HIST1H1D (11736915_at) / RFU CASKIN2 (11723855_a_at) / Fold change /veh CASKIN2 (11723855_a_at) / RFU LOC730098 (11760151_x_at) / Fold change /veh LOC730098 (11760151_x_at) / RFU OR4N2 (11742367_at) / Fold change /veh OR4N2 (11742367_at) / RFU PRRT2 (11749266_a_at) / Fold change /veh PRRT2 (11749266_a_at) / RFU SNX32 (11753110_a_at) / Fold change /veh SNX32 (11753110_a_at) / RFU CDHR5 (11726645_a_at) / Fold change /veh CDHR5 (11726645_a_at) / RFU RCAN1 (11760418_a_at) / Fold change /veh RCAN1 (11760418_a_at) / RFU FAM167A (11723789_a_at) / Fold change /veh FAM167A (11723789_a_at) / RFU FAM26E (11764081_at) / Fold change /veh FAM26E (11764081_at) / RFU ISYNA1 (11749810_s_at) / Fold change /veh ISYNA1 (11749810_s_at) / RFU ACY1 (11761880_at) / Fold change /veh ACY1 (11761880_at) / RFU 11764098_at / Fold change /veh 11764098_at / RFU SAMD14 (11745864_x_at) / Fold change /veh SAMD14 (11745864_x_at) / RFU NPB (11741838_a_at) / Fold change /veh NPB (11741838_a_at) / RFU TMPRSS6 (11731388_a_at) / Fold change /veh TMPRSS6 (11731388_a_at) / RFU KRTAP10-2 (11738614_at) / Fold change /veh KRTAP10-2 (11738614_at) / RFU ARHGAP8 /// PRR5-ARHGAP8 (11727945_x_at) / Fold change /veh ARHGAP8 /// PRR5-ARHGAP8 (11727945_x_at) / RFU KRTAP5-7 /// NADSYN1 (11734609_at) / Fold change /veh KRTAP5-7 /// NADSYN1 (11734609_at) / RFU RASL12 (11751679_a_at) / Fold change /veh RASL12 (11751679_a_at) / RFU CDKN2B (11736163_a_at) / Fold change /veh CDKN2B (11736163_a_at) / RFU PRF1 (11729649_at) / Fold change /veh PRF1 (11729649_at) / RFU, ZNF638 /// ZNF638-IT1 / Fold change vs veh, ZNF638 /// ZNF638-IT1 / RFU, PANK3 / Fold change vs veh, PANK3 / RFU, SH3YL1 / Fold change vs veh, SH3YL1 / RFU, ZEB2 / Fold change vs veh, ZEB2 / RFU, NRIP1 / Fold change vs veh, NRIP1 / RFU, PTTG1IP / Fold change vs veh, PTTG1IP / RFU, CAPN2 / Fold change vs veh, CAPN2 / RFU, MED14 / Fold change vs veh, MED14 / RFU, SNORA58 / Fold change vs veh, SNORA58 / RFU, C1orf63 / Fold change vs veh, C1orf63 / RFU, LRRFIP1 / Fold change vs veh, LRRFIP1 / RFU, NDUFAF7 / Fold change vs veh, NDUFAF7 / RFU, SLC12A2 / Fold change vs veh, SLC12A2 / RFU, IBTK / Fold change vs veh, IBTK / RFU, ESF1 / Fold change vs veh, ESF1 / Fold change vs veh, TMEM50B / RFU, TAOK1 / Fold change vs veh, TAOK1 / RFU, ACBD3 / Fold change vs veh, ACBD3 / RFU, TMA16 / Fold change vs veh, TMA16 / RFU, RWDD3 / Fold change vs veh, RWDD3 / RFU, BCAT1 / Fold change vs veh, BCAT1 / RFU, EDEM3 / Fold change vs veh, EDEM3 / RFU, TMEM33 / Fold change vs veh, TMEM33 / RFU, WDR75 / Fold change vs veh, WDR75 / RFU, AHCTF1 / Fold change vs veh, AHCTF1 / RFU, TFRC / Fold change vs veh, TFRC / RFU, ZDHHC17 / Fold change vs veh, ZDHHC17 / RFU, NOM1 / Fold change vs veh, NOM1 / RFU, ARL8B / Fold change vs veh, ARL8B / RFU, ZBTB11 / Fold change vs veh, ZBTB11 / RFU, TAMM41 / Fold change vs veh, TAMM41 / RFU, KIAA1704 /// LOC100996395 / Fold change vs veh, KIAA1704 /// LOC100996395 / RFU, ING1 / Fold change vs veh, ING1 / RFU, TRMT61B / Fold change vs veh, TRMT61B / RFU, FUBP3 / Fold change vs veh, FUBP3 / RFU, TP53 / Fold change vs veh, TP53 / RFU, TNKS2 / Fold change vs veh, TNKS2 / RFU, ZFP14 / Fold change vs veh, ZFP14 / RFU, ACTR2 / Fold change vs veh, ACTR2 / RFU, PPP3R1 / Fold change vs veh, PPP3R1 / RFU, PIK3R1 / Fold change vs veh, PIK3R1 / RFU, HNRNPA1 / Fold change vs veh, HNRNPA1 / RFU, RNF170 / Fold change vs veh, RNF170 / RFU, ZNF28 / Fold change vs veh, ZNF28 / RFU, RNGTT / Fold change vs veh, RNGTT / RFU, OGT / Fold change vs veh, OGT / RFU, BRD1 / Fold change vs veh, BRD1 / RFU, MARS / Fold change vs veh, MARS / RFU, ZNF655 / Fold change vs veh, ZNF655 / RFU, FAHD1 / Fold change vs veh, FAHD1 / RFU, BDP1 / Fold change vs veh, BDP1 / RFU, LRRCC1 / Fold change vs veh, LRRCC1 / RFU, ARID1A / Fold change vs veh, ARID1A / RFU, ZNF146 / Fold change vs veh, ZNF146 / RFU, ZNF330 / Fold change vs veh, ZNF330 / RFU, GPN3 / Fold change vs veh, GPN3 / RFU, C9orf123 / Fold change vs veh, C9orf123 / RFU, N4BP2L2 / Fold change vs veh, N4BP2L2 / RFU, ARFIP1 / Fold change vs veh, ARFIP1 / RFU, FAM179B / Fold change vs veh, FAM179B / RFU, BCL10 / Fold change vs veh, BCL10 / RFU, UHRF1BP1L / Fold change vs veh, UHRF1BP1L / RFU, BET1 / Fold change vs veh, BET1 / RFU, CNOT2 / Fold change vs veh, CNOT2 / RFU, ZNF268 / Fold change vs veh, ZNF268 / Fold change vs veh, ZNF507 / RFU, DGCR2 / Fold change vs veh, DGCR2 / RFU, WDSUB1 / Fold change vs veh, WDSUB1 / Fold change vs veh, HSP90B1 /// MIR3652 / RFU, ADSS / Fold change vs veh, ADSS / RFU, GK / Fold change vs veh, GK / RFU, ZNF148 / Fold change vs veh, ZNF148 / RFU, TAF9 / Fold change vs veh, TAF9 / RFU, SLC1A5 / Fold change vs veh, SLC1A5 / RFU, SLMO2 / Fold change vs veh, SLMO2 / RFU, ABCC4 / Fold change vs veh, ABCC4 / RFU, LOC101060439 /// RAP1B / Fold change vs veh, LOC101060439 /// RAP1B / RFU, RFX7 / Fold change vs veh, RFX7 / RFU, GTPBP10 / Fold change vs veh, GTPBP10 / RFU, CNEP1R1 / Fold change vs veh, CNEP1R1 / RFU, BIVM-ERCC5 /// ERCC5 / Fold change vs veh, BIVM-ERCC5 /// ERCC5 / RFU, ILF3 / Fold change vs veh, ILF3 / RFU 11762660_at / Fold change /veh 11762660_at / RFU VCAN (11757783_s_at) / Fold change /veh VCAN (11757783_s_at) / RFU DDX43 (11728927_at) / Fold change /veh DDX43 (11728927_at) / RFU KRT8 (11758188_x_at) / Fold change /veh KRT8 (11758188_x_at) / RFU NKD1 (11759106_at) / Fold change /veh NKD1 (11759106_at) / RFU SRD5A1 (11742802_a_at) / Fold change /veh SRD5A1 (11742802_a_at) / RFU TPSAB1 /// TPSB2 (11721975_s_at) / Fold change /veh TPSAB1 /// TPSB2 (11721975_s_at) / RFU GSTM3 (11746129_a_at) / Fold change /veh GSTM3 (11746129_a_at) / RFU IL23R (11737362_x_at) / Fold change /veh IL23R (11737362_x_at) / RFU TMEM51 (11727254_a_at) / Fold change /veh TMEM51 (11727254_a_at) / RFU PIWIL2 (11732686_x_at) / Fold change /veh PIWIL2 (11732686_x_at) / RFU ORM1 (11744905_x_at) / Fold change /veh ORM1 (11744905_x_at) / RFU CCDC152 (11743942_at) / Fold change /veh CCDC152 (11743942_at) / RFU ECM1 (11717891_a_at) / Fold change /veh ECM1 (11717891_a_at) / RFU IL23R (11748794_a_at) / Fold change /veh IL23R (11748794_a_at) / RFU TNFAIP8L3 (11732012_x_at) / Fold change /veh TNFAIP8L3 (11732012_x_at) / RFU MBOAT4 (11741988_at) / Fold change /veh MBOAT4 (11741988_at) / RFU 11764193_at / Fold change /veh 11764193_at / RFU TMEM53 (11763286_at) / Fold change /veh TMEM53 (11763286_at) / RFU MAGEB2 (11727129_at) / Fold change /veh MAGEB2 (11727129_at) / RFU TMEM200A (11744735_a_at) / Fold change /veh TMEM200A (11744735_a_at) / RFU CCDC152 (11751479_a_at) / Fold change /veh CCDC152 (11751479_a_at) / RFU FAM211A (11726209_a_at) / Fold change /veh FAM211A (11726209_a_at) / RFU RGS16 (11746705_a_at) / Fold change /veh RGS16 (11746705_a_at) / RFU VCAN (11755009_s_at) / Fold change /veh VCAN (11755009_s_at) / RFU RHOB (11743442_s_at) / Fold change /veh RHOB (11743442_s_at) / RFU RGS16 (11720943_a_at) / Fold change /veh RGS16 (11720943_a_at) / RFU RGS16 (11720944_at) / Fold change /veh RGS16 (11720944_at) / RFU, VPS4B / Fold change vs veh, VPS4B / RFU, CREB1 / Fold change vs veh, CREB1 / RFU, DNAJC13 / Fold change vs veh, DNAJC13 / RFU, GNAQ / Fold change vs veh, GNAQ / RFU, CDK5R1 / Fold change vs veh, CDK5R1 / RFU, ZRANB3 / Fold change vs veh, ZRANB3 / RFU, CUL4A / Fold change vs veh, CUL4A / RFU, CCNY / Fold change vs veh, CCNY / RFU, UFL1 / Fold change vs veh, UFL1 / RFU, COG3 / Fold change vs veh, COG3 / RFU, DIAPH2 / Fold change vs veh, DIAPH2 / RFU, SKA2 / Fold change vs veh, SKA2 / RFU, AFF3 / Fold change vs veh, AFF3 / RFU, LMF1 / Fold change vs veh, LMF1 / RFU, IPO11 / Fold change vs veh, IPO11 / RFU, DFFB / Fold change vs veh, DFFB / RFU, FOXP1 / Fold change vs veh, FOXP1 / RFU, CARD8 / Fold change vs veh, CARD8 / RFU, STRN3 / Fold change vs veh, STRN3 / RFU, ADK / Fold change vs veh, ADK / RFU, RASSF2 / Fold change vs veh, RASSF2 / RFU, WIPF1 / Fold change vs veh, WIPF1 / RFU, LARP1B / Fold change vs veh, LARP1B / RFU, RASA1 / Fold change vs veh, RASA1 / RFU, RB1 / Fold change vs veh, RB1 / RFU, PPFIA1 / Fold change vs veh, PPFIA1 / RFU, MAT2A / Fold change vs veh, MAT2A / RFU, CCT5 / Fold change vs veh, CCT5 / RFU, WDR92 / Fold change vs veh, WDR92 / RFU, CUX1 / Fold change vs veh, CUX1 / RFU, TTC7A / Fold change vs veh, TTC7A / RFU, TMEM135 / Fold change vs veh, TMEM135 / RFU, DEPTOR / Fold change vs veh, DEPTOR / RFU, CPM / Fold change vs veh, CPM / RFU, DNAJB6 / Fold change vs veh, DNAJB6 / RFU, CACNA2D3 / Fold change vs veh, CACNA2D3 / RFU, DTX4 / Fold change vs veh, DTX4 / RFU, TFCP2 / Fold change vs veh, TFCP2 / RFU, GMCL1 /// GMCL1P1 / Fold change vs veh, GMCL1 /// GMCL1P1 / RFU, AEBP2 / Fold change vs veh, AEBP2 / RFU, SNHG1 /// SNORD22 /// SNORD25 /// SNORD26 /// SNORD27 /// SNORD28 /// SNORD29 /// SNORD31 / Fold change vs veh, SNHG1 /// SNORD22 /// SNORD25 /// SNORD26 /// SNORD27 /// SNORD28 /// SNORD29 /// SNORD31 / Fold change (Aza/veh), C12orf56 (ProbeSet 11735607_a_at) / Fold change (ACY-1035/veh), C12orf56 (ProbeSet 11735607_a_at) / Fold change (Aza/veh), FGFR1OP (ProbeSet 11751329_s_at) / Fold change (ACY-1035/veh), FGFR1OP (ProbeSet 11751329_s_at) / Fold change (Aza/veh), VPS36 (ProbeSet 11739960_a_at) / Fold change (ACY-1035/veh), VPS36 (ProbeSet 11739960_a_at) / RFU SYPL1 (11715823_x_at) / Fold change /veh SYPL1 (11715823_x_at) / RFU IGFBP7 (11715501_s_at) / Fold change /veh IGFBP7 (11715501_s_at) / RFU REEP3 (11722064_at) / Fold change /veh REEP3 (11722064_at) / RFU IGLL1 (11728026_x_at) / Fold change /veh IGLL1 (11728026_x_at): dose or concentration left out as unconfirmed
Conditions: ProbeSet 11723475_a_at; LIST B

Nc1ccc(-c2cccs2)cc1NC(=O)c1ccc2c(c1)cc(C1CC1)n2CCN1CCOCC1 [ACY-1035]
Fold change vs veh, TRMT61B: 0.88

— article PMC5218480 (PLoS ONE, 2017)
